In patent US8546608B2, “Proteasome inhibitors and methods of using the same” (Cephalon, Inc., priority 2003, dated 2013):

Columns and labels:
[1] = target: T1, 20S Human Erythrocyte Proteasome (HEP) (Homo sapiens, UniProt P20618+P28074); test: Chymotrypsin-like activity of 20S Human Erythrocyte Proteasome (HEP), IC50 determination; format: biochemical; settings: assay of Example C, inhibition of HEP
T1 construct: 20S Human Erythrocyte Proteasome (HEP), purchased from Immatics Biotechnologies Inc; purchased Immatics Biotechnologies Inc., Tübingen, Germany; host or cells: human erythrocytes (natural source)
Outline: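 20S proteasome at 0.2 μg/mL (about 0.6 nM catalytic sites) in 20 mM Tris with 0.04% SDS, preincubated 15 min at 37° C with inhibitor before Suc-LLVY-AMC (100 μM final). AMC fluorescence read in the linear range; triplicates, IC50 from concentration series.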

[2] = target: T2, proteasome in Molt-4 cells (human leukemia) (Homo sapiens, UniProt P20618+P28074); format: cell-based; settings: assay of Example E, inhibition of MOLT4; read-out: MOLT4 (EC50)
T2 sequence (P28074 60-263): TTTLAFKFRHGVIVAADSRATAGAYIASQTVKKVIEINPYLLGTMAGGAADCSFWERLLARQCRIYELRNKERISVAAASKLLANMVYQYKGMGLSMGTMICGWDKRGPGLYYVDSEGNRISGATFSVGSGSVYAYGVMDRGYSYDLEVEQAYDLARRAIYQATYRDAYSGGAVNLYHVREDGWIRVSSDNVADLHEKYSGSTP
T2 sequence (P20618 29-241): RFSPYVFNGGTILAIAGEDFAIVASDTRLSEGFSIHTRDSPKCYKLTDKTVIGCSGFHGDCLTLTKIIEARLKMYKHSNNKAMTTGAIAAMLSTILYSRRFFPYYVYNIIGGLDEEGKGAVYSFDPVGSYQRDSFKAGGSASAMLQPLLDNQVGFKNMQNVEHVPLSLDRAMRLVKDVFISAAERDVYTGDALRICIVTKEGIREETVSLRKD
Outline: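 Intact Molt-4 cells (6×10^6 cells/mL) in HEPES-buffered saline were preincubated with inhibitor 15 min at 37 °C, then given cell-permeable MeOSuc-FLF-AFC at 25 μM final.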

SMILES	IC50 [1] [nM]	melting point [°C]	EC50 [2] [nM]
CCCCc1ccc(C(=O)N[C@@H](CNC(=O)OCc2ccccc2)C(=O)N[C@@H](CC(C)C)B2O[C@@H]3C[C@@H]4C[C@@H](C4(C)C)[C@]3(C)O2)cc1 [D.16.6]	< 10	95 to 100	< 200
CCCCc1ccc(C(=O)N[C@@H](CNC(C)=O)C(=O)N[C@@H](CC(C)C)B2O[C@@H]3C[C@@H]4C[C@@H](C4(C)C)[C@]3(C)O2)cc1 [D.24.3, 4-butylbenzamide, N-[(1S)-1-[[[(1R)-1-[(3aS,aS,6S,7aR)-hexahydro-3a,5,5-trimethyl-4,6-methano-1,3,2-benzodioxaborol-2-yl-]-3-methylbutyl]amino]carbonyl]-2-(acetamido)ethyl]-]	< 10	133 to 135	< 200
CCCCc1ccc(C(=O)N[C@@H](CNS(C)(=O)=O)C(=O)N[C@@H](CC(C)C)B2O[C@@H]3C[C@@H]4C[C@@H](C4(C)C)[C@]3(C)O2)cc1 [D.24.4, 4-butylbenzamide, N-[(1S)-1-[[[(1R)-1-[(3aS,aS,6S,7aR)-hexahydro-3a,5,5-trimethyl-4,6-methano-1,3,2-benzodioxaborol-2-yl-]-3-methylbulyl]amino]carbonyl]-2-(methanesulfonamido)ethyl]-]	< 10	53 to 55	< 200
CCCCc1ccc(C(=O)N[C@@H](CNC(=O)c2ccc(C)cc2)C(=O)N[C@@H](CC(C)C)B2O[C@@H]3C[C@@H]4C[C@@H](C4(C)C)[C@]3(C)O2)cc1 [D.24.6, 4-butylbenzamide, N-[(1S)-1-[[[(1R)-1-[(3aS,aS,6S,7aR)-hexahydro-3a,5,5-trimethyl-4,6-methano-1,3,2-benzodioxaborol-2-yl-]-3-methylbutyl]amino]carbonyl]-2-[(4-methylphenyl)carbonylamino]ethyl]-]	< 10	150 to 152	< 200
CCCCCCCCCC(=O)N[C@@H](CNC(=O)c1cccs1)C(=O)N[C@@H](CC(C)C)B1O[C@@H]2C[C@@H]3C[C@@H](C3(C)C)[C@]2(C)O1 [D.24.9, Decanamide, N-[(1S)-1-[[[(1R)-1-[(3aS,4S,6S,7aR)-hexahydro-3a,5,5-trimethyl-4,6-methano-1,3,2-benzodioxaborol-2-yl]-3-methylbutyl]amino]carbonyl]-2-[(thien-2-ylcarbonyl)amino]ethyl]-]	< 10	110	< 200
CCCCc1ccc(C(=O)N[C@@H](CNC(=O)c2ccc(S(N)(=O)=O)cc2)C(=O)N[C@@H](CC(C)C)B2O[C@@H]3C[C@@H]4C[C@@H](C4(C)C)[C@]3(C)O2)cc1 [D.24.16]	< 10	145 to 147	< 200
CC(C)C[C@H](NC(=O)[C@H](CNC(=O)c1ccc(-c2ccccc2)cc1)NC(=O)c1ccc(Oc2ccccc2)cc1)B1O[C@@H]2C[C@@H]3C[C@@H](C3(C)C)[C@]2(C)O1 [D.24.31, 4-phenoxybenzamide, N-[(1S)-1-[[[(1R)-1-[(3aS,4S,6S,7aR)-hexahydro-3a,5,5-trimethyl-4,6-methano-1,3,2-benzodioxaborol-2-yl]-3-methylbutyl]amino]carbonyl]-2-(4-phenylbenzoylamino)ethyl]-]		150 to 152	
CCCCc1ccc(C(=O)N[C@@H](CNC(=O)c2ccc(-c3ccccc3)cc2)C(=O)N[C@@H](CC(C)C)B2O[C@@H]3C[C@@H]4C[C@@H](C4(C)C)[C@]3(C)O2)cc1 [D.24.32, 4-butylbenzamide, N-[(1S)-1-[[[(1R)-1-[(3aS,4S,6S,7aR)-hexahydro-3a,5,5-trimethyl-4,6-methano-1,3,2-benzodioxaborol-2-yl]-3-methylbutyl]amino]carbonyl]-2-(4-phenylbenzoylamino)ethyl]-]		195 to 198	
CCCCc1ccc(C(=O)N[C@@H](CNC(=O)C#Cc2ccccc2)C(=O)N[C@@H](CC(C)C)B2O[C@@H]3C[C@@H]4C[C@@H](C4(C)C)[C@]3(C)O2)cc1 [D.24.33, 4-butylbenzamide, N-[(1S)-1-[[[(1R)-1-[(3aS,4S,6S,7aR)-hexahydro-3a,5,5-trimethyl-4,6-methano-1,3,2-benzodioxaborol-2-yl]-3-methylbutyl]amino]carbonyl]-2-(3-phenylpropynoylamino)ethyl]-]		118 to 120	
CCCCc1ccc(C(=O)N[C@@H](CNC(=O)C2CCN(S(C)(=O)=O)CC2)C(=O)N[C@@H](CC(C)C)B2O[C@@H]3C[C@@H]4C[C@@H](C4(C)C)[C@]3(C)O2)cc1 [D.24.36, 4-butylbenzamide, N-[(1S)-1-[[[(1R)-1-[(3aS,aS,6S,7aR)-hexahydro-3a,5,5-trimethyl-4,6-methano-1,3,2-benzodioxaborol-2-yl-]-3-methylbutyl]amino]carbonyl]-2-(1-methanesulfonyl-piperidine-4-carbonylamino)ethyl]-]		170 to 172	
CCCCCCCCCCCCC(=O)N[C@H](C(=O)N[C@@H](CC(C)C)B(O)O)[C@@H](C)O [E.3.3, Boronic acid, [(1R)-1-[[(2S,3R)-3-hydroxy-2-[(tridecanoyl)amino]-1-oxobutyl]amino]-3-methylbutyl]]	< 10	97 to 116	< 200
CC(C)C[C@H](NC(=O)[C@@H](NC(=O)c1ccc(-c2ccccc2)cc1)[C@@H](C)O)B(O)O [E.3.5, Boronic acid, [(1R)-1-[[(2S,3R)-3-hydroxy-2-[(4-phenylbenzoyl)amino]-1-oxobutyl]amino]-3-methylbutyl]]	< 10	200 to 208	< 200
CCCCc1ccc(C(=O)N[C@@H](CNS(C)(=O)=O)C(=O)N[C@@H](CC(C)C)B(O)O)cc1 [E.5.3, Boronic acid, [(1R)-1-[[(2S)-3-(methanesulfamido)-2-[(4-butyl)-benzoylamino]-1-oxopropyl]amino]-3-methylbutyl]]	< 100	120 to 123	200 to 2000
CCCCc1ccc(C(=O)N[C@@H](CNC(=O)OCc2ccccc2)C(=O)N[C@@H](CC(C)C)B(O)O)cc1 [E.5.6]	< 10	92 to 96	< 200
CCCCc1ccc(C(=O)N[C@@H](CNC(C)=O)C(=O)N[C@@H](CC(C)C)B(O)O)cc1 [E.5.8]	< 10	107 to 109	< 200
CCCCc1ccc(C(=O)N[C@@H](CNS(=O)(=O)c2ccc(F)cc2)C(=O)N[C@@H](CC(C)C)B(O)O)cc1 [E.5.11, Boronic acid, [(1R)-1-[[(2S)-3-[4-fluoro-benzenesulfonamide]-2-[(4-butylbenzoyl)amino]-1-oxopropyl]amino]-3-methylbutyl]]	< 10	130 to 132	< 200
CCCCc1ccc(C(=O)N[C@@H](CNC(=O)Cc2ccc(OC)c(OC)c2)C(=O)N[C@@H](CC(C)C)B(O)O)cc1 [E.5.15, Boronic acid, [(1R)-1-[[(2S)-3-[(3,4-dimethoxyphenyl)acetylamino]-2-[(4-butylbenzoylamino)]-1-oxopropyl]amino]-3-methylbutyl]]		150 to 152	
CCCCc1ccc(C(=O)N[C@@H](CNC(=O)C2CCN(S(C)(=O)=O)CC2)C(=O)N[C@@H](CC(C)C)B(O)O)cc1 [E.5.38, Boronic acid, [(1R)-1-[[(2S)-3-(1-methanesulfonylpiperidine-4-carbonylamino)-2-[(4-butylbenzoylamino)]-1-oxopropyl]amino]-3-methylbutyl]]		170 to 173	
